Test results taken from the NIST ThermoML archive (doi:10.1021/acs.jced.7b00946).
± gives the expanded uncertainty stated by the source.

Experiment: molar heat capacity at constant pressure
Details: Gas, Flow calorimetry

C=C(F)C(F)(F)F [2,3,3,3-tetrafluoro-1-propene]
molar heat capacity at constant pressure (373.15 K, 3498 kPa): 410.55 ± 52 J/K/mol | molar heat capacity at constant pressure (373.15 K, 4114 kPa): 394.58 ± 30 J/K/mol | molar heat capacity at constant pressure (373.15 K, 4160 kPa): 387.74 ± 25 J/K/mol | molar heat capacity at constant pressure (373.15 K, 4441 kPa): 288.53 ± 18 J/K/mol | molar heat capacity at constant pressure (373.15 K, 4642 kPa): 273.7 ± 15 J/K/mol | molar heat capacity at constant pressure (373.15 K, 4921 kPa): 245.19 ± 13 J/K/mol | molar heat capacity at constant pressure (373.15 K, 5047 kPa): 238.35 ± 11 J/K/mol | molar heat capacity at constant pressure (373.15 K, 5955 kPa): 210.98 ± 10 J/K/mol | molar heat capacity at constant pressure (373.15 K, 6023 kPa): 210.98 ± 10 J/K/mol | molar heat capacity at constant pressure (373.15 K, 8020 kPa): 187.03 ± 9.1 J/K/mol | molar heat capacity at constant pressure (373.15 K, 8021 kPa): 188.17 ± 9.1 J/K/mol | molar heat capacity at constant pressure (373.15 K, 8024 kPa): 188.17 ± 9.1 J/K/mol | molar heat capacity at constant pressure (393.15 K, 4039 kPa): 218.96 ± 13 J/K/mol | molar heat capacity at constant pressure (393.15 K, 4040 kPa): 217.82 ± 13 J/K/mol | molar heat capacity at constant pressure (393.15 K, 4943 kPa): 345.55 ± 17 J/K/mol | molar heat capacity at constant pressure (393.15 K, 4944 kPa): 339.84 ± 17 J/K/mol | molar heat capacity at constant pressure (393.15 K, 5417 kPa): 322.74 ± 16 J/K/mol | molar heat capacity at constant pressure (393.15 K, 5958 kPa): 278.26 ± 15 J/K/mol | molar heat capacity at constant pressure (393.15 K, 6022 kPa): 275.98 ± 26 J/K/mol | molar heat capacity at constant pressure (393.15 K, 7949 kPa): 205.27 ± 10 J/K/mol | molar heat capacity at constant pressure (393.15 K, 8043 kPa): 205.27 ± 10 J/K/mol | molar heat capacity at constant pressure (393.15 K, 10032 kPa): 188.17 ± 9.1 J/K/mol | molar heat capacity at constant pressure (413.15 K, 4015 kPa): 173.34 ± 9.1 J/K/mol | molar heat capacity at constant pressure (413.15 K, 4989 kPa): 207.56 ± 10 J/K/mol | molar heat capacity at constant pressure (413.15 K, 5045 kPa): 208.7 ± 10 J/K/mol | molar heat capacity at constant pressure (413.15 K, 6037 kPa): 244.05 ± 11 J/K/mol | molar heat capacity at constant pressure (413.15 K, 6963 kPa): 245.19 ± 11 J/K/mol | molar heat capacity at constant pressure (413.15 K, 6965 kPa): 241.77 ± 11 J/K/mol | molar heat capacity at constant pressure (413.15 K, 8042 kPa): 228.08 ± 11 J/K/mol | molar heat capacity at constant pressure (413.15 K, 8043 kPa): 228.08 ± 11 J/K/mol | molar heat capacity at constant pressure (413.15 K, 10030 kPa): 201.85 ± 10 J/K/mol
